What was measured:
[1] = Inhibition of deoxyribose oxidation (superoxide from xanthine oxidase/hypoxanthine; TBA/MDA detection); assay type: biochemical; conditions: 10 mM
Source text: Several in vitro tests have been carried out in order to reveal the evoked different antioxidant properties.
Experimental procedure described by J. M. C. Gutteridge in Biochemistry Journal, vol. 224 (1984), p. 761-767: oxidation substrate: deoxyribose
Superoxide anions production system: xanthine oxidase/hypoxanthine detection: thiobarbituric acid/malondialdehyde (MDA)

lens = test: Cataract patients: lens opacity (slit lamp, retroillumination, image analysis); assay type: in vivo; conditions: for decrease of the opacity: 24 months, groups 2 and 3; for integration peak of opacity distribution: posterior subcapsular cataract
Source text: The study has been designed for a prospective evaluation of the modifications of the lens opacity in patients effected by cataract. All the patients have undergone an initial ophtalmic examination. It involved the making of the medical historical record of the patient, a measurement of the visual acuity at a maximum correction, direct or indirect ophtalmoscopies, an evaluation of the opacities with the slit lamp, a clinical grading of the lens after maximal mydriasis, a classification according to the cataract type, and lens pictures by retroillumination. Moreover, samples of blood have been taken at the beginning, then in follow-up for chemical analysis.
Changes of the lens have been examined in all the patients by using the microscope with the Zeiss slit lamp. The photographic observations obtained with this technique included a base line examination, intermediate studies and a final examination at the end of the treatment period.
In using the technique of the slit lamp, the lens has been pictured layer by layer in order to visualize all the anterior segment of the eye, from the cornea to the posterior capsule.
With this technique, Red reflex examination has been carried out, according to a conventional retroillumination. Then lens modifications were graded according to the anatomical location and the importance of the modification.
Cortical opacities have been graded and pictured in retroillumination. Afterwards this film has been submitted to a measurement of linear densitometry with a microdensitometer. The opacity values have been reported in relative value using a standard scale of opacification. The cortical opacities measurement have been rated also taking into account of the total surface exposed to radiation. The posterior subcapsular opacities have been measured in retroillumination by the longest height, from the lower part to the top and by the greatest width, using the scale of the slit lamp.
Pictures of the lens also were taken on nuclear and cortical opacities and later on they were graded.
The different negatives taken with the slit lamp have been analyzed with a "plumbicon tube". This equipment allows one to transpose with a large accuracy a measurement of intensity of light into an electric signal which is integrated and stored in an analysis system of computerized image. With the help of a specific program, the lens image in that manner "digitized" could be reproduced as a graph in two or three dimensions.
A detailed description of this method of image processing is given in : Babizhayev M. A. Zhukotskii A. V. and Sologub A. A. (1992), "Image analysis of the lens opacities induced in developing chick embryo by glucocorticoid", Exp. Eye Res. Vol. 55, p.521-537.
The represented histograms show in a concrete example the interest of such evaluation method. A case of posterior subcapsular cataract is studied before and after 21/2 months of treatment following topical applications with eye drops containing 1% of β-alanyl-histamine. The histograms give the quantitative distribution of opacities with an integration peak of 58.44±18.14 before treatment, and of 44.95±8.77 after 21/2 months of treatment.
Following the protocol described above, we determine the values of the optic density of the lens according to its opacity as well as the visual acuity, and the whole for 24 months. Considering these two parameters, we obtain tables giving results concerning the modification of the visual acuity at the end of 24 months in Tables 1 and 2, and the results concerning the modification of the visual opacity at the end of 24 months in Tables 3 and 4.

[2] = tested on: cutaneous connective tissue; test: Repairing of the cutaneous connective tissue after incision in rat (histology); assay type: in vivo, Wistar rats
Experimental: This experiment has been carried out on a batch of 12 Wistar rats. An incision of a length of 12 mm involving in depth epiderm and derm as a whole was performed. At the end of the healing, the rats are then treated by topical applications of β-alanyl-histadine for three weeks. At the same time, a reference batch of 12 rats have been treated with placebo for the same lasting time of experiment.

[3] = Inhibition of phosphatidylcholine liposome peroxidation (Fe/ascorbic acid; TBA/MDA); conditions: 10 mM; control 4.4
Source text: oxidation substrate: phosphatidylcholine liposomes
free radicals generating system : Fe/ascorbic acid detection: thiobarbituric acid (TBA)/malondialdehyde (MDA)

[4] = Inhibition of linoleic acid peroxidation (Fe/ascorbic acid; TBA/MDA); assay type: biochemical; conditions: 25 mM (mixture: 25 mM each), linoleic acid 0.25 mg/ml
Experimental: oxidation substrate: linoleic acid (0.25 mg/ml), free radicals generating system: Fe/ascorbic acid detection: thiobarbituric acid (TBA)/malondialdehyde (MDA)

[5] = "Peroxidase" activity: reduction of 13-monoperoxide of linoleic acid (L-OOH); assay type: biochemical; conditions: for "peroxidase" activity: 13-monoperoxide linoleic acid 0.5 mM, control 36.7
Experimental: Lipid peroxides evolution is monitored with the help of 3 methods:
1°) spectrophotometric measure at 233 nm
(O. S. Privett, C. Nickell, W. O. Lundberg, and P. D. Bayer, dans J.Am.Oil Chem. Soc, Vol 32 (1955), P.505-511
2°) Iodometric dosage: M.Hicks' and J. M. Gebicki's method, Analytical Biochemistry, vol 99 (1979), p 249-253.
3°) Chromatography on silica gel plate (hexane/ether/acetic acid 8/7/0.1).
(a) 13-monoperoxide linoleic acid 0.5 mM without reducing agent (preparation according to H. W. Gardner's method Lipids, Vol.10 (1975), p. 248-252).

[6] = Tests with peroxidized compounds: reducing behaviour; assay type: biochemical
murine splenocytes = test: Immunostimulating activity in vitro on murine splenocytes (tritiated thymidine incorporation); assay type: cell-based
Source text: The procedure is extracted from: J. Kunert-Radek, H. Stepien, K. Lyson and M. Pawlikowski--"Effects of calcium channel modulators on the proliferation of mouse spleen lymphocytes in vitro"--Agents and Actions, vol. 29, Nos 3-4 (1990), p. 254-258.
The cell proliferation is followed by the measurement of the extent of incorporation of tritriated thymidine in the cells, expressed in numbers of desintegrations per mn, deducted from the background.
The results obtained with an immunostimulator of reference, concanavaline A, are given as a comparison.
The immunostimulating effect is expressed by an Index of Stimulation (IS) [formula]
The given values are corresponding to the average of three measures.

[7] = after 21/2 months, eye drops 1%

% inhibition of deoxyribose oxidation [1]: 49%
"peroxidase" activity ([5]; 10 mM): 138.1 mol of L-OOH reduced/hour
"peroxidase" activity ([5]; 20 mM): 187.5 mol of L-OOH reduced/hour
"peroxidase" activity with the adding of EDTA ([5]; EDTA 0.5 mM): completely inhibited
Structure (SMILES): NCCC(=O)NCCc1c[nH]cn1 [β-alanyl-histamine]
decrease of the opacity (lens; modification 5 @ 9%): 3
decrease of the opacity (lens; modification 10 @ 14%): 5
decrease of the opacity (lens; modification 15 @ 19%): 5
decrease of the opacity (lens; modification 20 @ 24%): 1
decrease of the opacity (lens; modification +25%): 5
decrease of the opacity (lens; total): 19
opacities in the posterior subcapsular region of the lens (lens; [7]): partial regression of the opacities
integration peak of opacity distribution (lens; [7]): 44.95±8.77
integration peak of opacity distribution (lens; before treatment): 58.44±18.14
density and aspect of the constituents of the connective tissue ([2]; capillary layer versus deep layer): obviously the same in the capillary layer and in the deep layer
thin elastic or reticulin fibres ([2]; dermic superficial layers): generally more numerous in the dermic superficial layers
fundamental substance ([2]; toluidine blue colouring): more abundant than normal
horny-layers ([2]; topical, after 3 weeks): identical to the ones of the surrounding normal epiderm
restoration of epiderm ([2]; topical, after 3 weeks): The epiderm is well restored
visibility of scar ([2]; topical, after 3 weeks): the scar is slightly or even not visible on the skin surface
MDA per mg of phospholipids [3]: 2.5 mol MDA per mg of phospholipid
% inhibition [4]: 47%
MDA per mg of linoleic acid ([4]; control 7.95): 4.25 mol MDA per mg of linoleic aci
reducing behaviour towards peroxidized compounds [6]: behaves in a way comparable to β-alanyl-histidine or carnosine
concentration of maximum immunostimulating effect (murine splenocytes): 25 µg/mL
immunostimulating activity versus reference mitogen (murine splenocytes): comparable with a reference mitogen, concanavaline A
fold induction at 2.5 µg/mL (murine splenocytes; Mus musculus, Splenocyte, 2.5 μg/ml, average of three measures, read-out: Index of Stimulation (IS)): 4.8
fold induction at 5 µg/mL (murine splenocytes; Mus musculus, Splenocyte, 5 μg/ml, average of three measures, read-out: Index of Stimulation (IS)): 15.7
fold induction at 10 µg/mL (murine splenocytes; Mus musculus, Splenocyte, 10 μg/ml, average of three measures, read-out: Index of Stimulation (IS)): 16.9
fold induction at 25 µg/mL (murine splenocytes; Mus musculus, Splenocyte, 25 μg/ml, average of three measures, read-out: Index of Stimulation (IS)): 18.6
fold induction at 50 µg/mL (murine splenocytes; Mus musculus, Splenocyte, 50 μg/ml, average of three measures, read-out: Index of Stimulation (IS)): 12.8

— patent US5792784A, “Coupling product obtained from histamine and an amino acid” (Babizhayev; Marc, priority 1993, dated 1998)
